Measurements taken from US7989446B2, “4-amino 5-cyanopyrimidine derivatives” (Otsuka Pharmaceutical Co., Ltd., priority 2004, dated 2011).
Counter-ions that a name gives are not always drawn.

Experiments:
[1] = test system: Intraocular Pressure in Rabbit; assay: Measuring test for intraocular pressure in rabbit; format: in vivo, Female New Zealand white rabbits; conditions: 0.3% suspended ophthalmic preparation, test group, mean±standard error
Method: (3) Measuring Test for Intraocular Pressure in Rabbit
The test compounds were dissolved in 10 mM of phosphate buffer (pH 7.5) (hereinafter, referred to as “vehicle of ophthalmic preparation”), and they were instilled in a given concentration. In addition, the compounds insoluble in that concentration was used as a suspension. Female New Zealand white rabbits (KITAYAMA LABES Co., Ltd.) whose weights were 2.0-4.0 kg were used.
The measurement of the intraocular pressure was carried out using Pneumatonometer (Model 30 Classic, Mentor company) without anesthesia. In addition, before the measurement of the intraocular pressure, the surface anesthesia with 0.4% oxybuprocaine hydrochloride (“Benoxil” 0.4% ophthalmic solution, Santen Pharmaceutical Co., Ltd.) was carried out.
The animals whose intraocular pressure was stable before instillation were selected, and these animals were divided to every 4 animal in each one group, 50 μL of eye drops including each the test compound was administered to one-sided eye and vehicle was administered to contralateral eye as the control eye. The measurement of intraocular pressure was carried out before instillation and after 0.5, 1, 2, 3, 4 and 6 hours from instillation. The effect on the intraocular pressure was shown as the difference from pre-instillation (ΔIOP, mmHg, mean±standard error). The following Tables 14 and 15 show the results of Control Compounds A and B used as 1% suspensions which are the same as in the pharmacological test (1).
The animals were pretreated as mentioned above, and among them animals whose intraocular pressure was stable before instillation were selected, and these animals were divided to every 5 to 8 animal in each one group. Every two group was used for each of the test compounds. The test compound was administered unilaterally to the eye of the test group rabbit and the intraocular pressure was measured. The vehicle was administered unilaterally to the eye of the control group rabbit and the intraocular pressure was measured. As mentioned above, the measurement of intraocular pressure was carried out before instillation and after 0.5, 1, 2, 3, 4 and 6 hours from instillation, and the effect on the intraocular pressure was shown as the difference from pre-instillation (ΔIOP, mmHg, mean±standard error).

[2] = target: T1, adenosine A2a receptor (Human) (Homo sapiens, UniProt P29274); assay: c-AMP generating action in cell expressing adenosine A2a receptor; format: cell-based; conditions: HEK293 cell expressing human A2a; 100% = c-AMP caused by 1 μM CGS-21680; read-out: A2a Agonistic Action (EC50)
T1 construct: host or cells: HEK293
Method: (1) c-AMP Generating Action in Cell Expressing Adenosine A2a Receptor
The test was carried out as mentioned below with reference to the method disclosed in the reference (Klotz k. N. et al., Naunyn-Schmiedeberg's Arch. Pharmacol., (1998) 357, 1-9; Shryock J. C. et al., Molecular Pharmacology, (1998) 53, 886-893).
As to the cell, HEK293 cell expressing adenosine A2a receptor (Human) (PerkinElmer Life Sciences, Code No. RBHA2AC) was used.
As to the culture medium, Dulbecco's modified Eagles medium (DMEM) including 10% FBS (Fetal bovine serum) and 1 mM of sodium pyruvate was used.
The cell was placed on 96 well plate (1×10^5/well), and cultured overnight. After removing off the supernatant, to each well, 0.1 ml of DMEM (without FBS) containing 20 mM HEPES, 0.1 mM of IBMX (3-isobutyl-1-methylxanthine) and 2 unit/mL adenosine deaminase was added, and they were incubated at 37° C. for 30 minutes. To each well, 0.1 ml of the culture medium including the DMSO solution of the test compound in an appropriate concentration was added and they were incubated for additional 30 minutes. After removing off the supernatant, the cytolytic solution was added to quench the reaction. The amount of c-AMP in each well was measured by using the c-AMP enzyme immunoassay (EIA) system (Amersham Biosciences, Code No. RPN225).
The same assay was repeated using CGS-21680 (2-p-carboxyethyl)phenethylamino-5′-N-ethylcarboxamidoadenosine hydrochloride, (Sigma, code C141) as reference compound. The amount of resultant c-AMP in the medium, caused by 1 μM of reference compound, was defined to be 100%. A concentration of assayed compound in the medium, producing 50% c-AMP amounts, was calculated to be EC50 value.

T1 sequence (P29274 whole entry): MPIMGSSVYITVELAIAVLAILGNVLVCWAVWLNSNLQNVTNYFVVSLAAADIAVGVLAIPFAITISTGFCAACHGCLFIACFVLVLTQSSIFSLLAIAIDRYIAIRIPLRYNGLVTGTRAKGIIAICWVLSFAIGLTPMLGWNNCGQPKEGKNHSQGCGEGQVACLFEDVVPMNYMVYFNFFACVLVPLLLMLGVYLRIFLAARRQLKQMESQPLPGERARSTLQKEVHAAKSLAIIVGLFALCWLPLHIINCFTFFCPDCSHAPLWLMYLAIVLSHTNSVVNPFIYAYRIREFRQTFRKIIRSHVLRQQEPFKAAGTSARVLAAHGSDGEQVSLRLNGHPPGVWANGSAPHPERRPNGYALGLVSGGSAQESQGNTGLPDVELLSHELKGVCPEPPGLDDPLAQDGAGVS

CCNC(=O)[C@H]1O[C@@H](n2cnc3c(N)nc(NCCc4ccc(CCC(=O)O)cc4)nc32)[C@H](O)[C@@H]1O [CGS-21680, (2-p-carboxyethyl)phenethylamino-5′-N-ethylcarboxamidoadenosine hydrochloride, reference compound]
ΔIOP (mmHg) ([1]; 0.5 hr): −2.5 ± 0.4 mmHg | ΔIOP (mmHg) ([1]; 1 hr): −6.3 ± 0.6 mmHg | ΔIOP (mmHg) ([1]; 2 hr): −4.2 ± 0.4 mmHg | ΔIOP (mmHg) ([1]; 3 hr): −3.5 ± 0.4 mmHg | ΔIOP (mmHg) ([1]; 4 hr): −1.5 ± 0.7 mmHg | ΔIOP (mmHg) ([1]; 6 hr): 0.3 ± 0.4 mmHg

CC(=O)Nc1ccc(-c2nc(SCc3ccccn3)nc(N)c2C#N)cc1 [Example 1, N-{4-[6-amino-5-cyano-2-(pyridin-2-ylmethylsulfanyl)-pyrimidin-4-yl]phenyl}acetamide]
EC50 [2]: 39.6 nM

CC(=O)Nc1ccc(-c2nc(SCc3ccc(C)cn3)nc(N)c2C#N)cc1 [Example 3, N-{4-[6-amino-5-cyano-2-(5-methylpyridin-2-ylmethylsulfanyl)pyrimidin-4-yl]phenyl}acetamide]
EC50 [2]: 65.7 nM

CC(=O)Nc1ccc(-c2nc(SCc3cc(C)ccn3)nc(N)c2C#N)cc1 [Example 4, N-{4-[6-amino-5-cyano-2-(4-methylpyridin-2-ylmethylsulfanyl)pyrimidin-4-yl]phenyl}acetamide]
EC50 [2]: 879 nM

Cc1cccc(CSc2nc(N)c(C#N)c(-c3ccc(N)cc3)n2)n1 [Example 8, 4-amino-6-(4-aminophenyl)-2-(6-methylpyridin-2-ylmethylsulfanyl)-pyrimidine-5-carbonitrile]
EC50 [2]: 34.8 nM

CCC(=O)Nc1ccc(-c2nc(SCc3cccc(C)n3)nc(N)c2C#N)cc1 [Example 9, N-{4-[6-amino-5-cyano-2-(6-methylpyridin-2-ylmethylsulfanyl)-pyrimidin-4-yl]phenyl}propionamide]
EC50 [2]: 9 nM

C=CC(=O)Nc1ccc(-c2nc(SCc3cccc(C)n3)nc(N)c2C#N)cc1 [Example 10, N-{4-[6-amino-5-cyano-2-(6-methylpyridin-2-ylmethylsulfanyl)pyrimidin-4-yl]phenyl}acrylamide]
EC50 [2]: 19.1 nM

CCCC(=O)Nc1ccc(-c2nc(SCc3cccc(C)n3)nc(N)c2C#N)cc1 [Example 11, N-{4-[6-amino-5-cyano-2-(6-methylpyridin-2-ylmethylsulfanyl)pyrimidin-4-yl]phenyl}butylamide]
EC50 [2]: 395 nM

COC(=O)Nc1ccc(-c2nc(SCc3cccc(C)n3)nc(N)c2C#N)cc1 [Example 13, methyl {4-[6-amino-5-cyano-2-(6-methylpyridin-2-ylmethylsulfanyl)pyrimidin-4-yl]phenyl}-carbamate]
EC50 [2]: 13.5 nM

CC(=O)Nc1ccc(-c2nc(SCc3cccc(CN4CCN(C(=O)OC(C)(C)C)CC4)n3)nc(N)c2C#N)cc1 [Example 17, t-butyl 4-{6-[4-(4-acetylaminophenyl)-6-amino-5-cyanopyrimidin-2-ylsulfanyl-methyl]-pyridin-2-ylmethyl}piperazine-1-carboxylate]
EC50 [2]: 6.8 nM

CC(=O)Nc1ccc(-c2nc(SCc3cccc(CN4CCN(C(=O)c5ccccc5)CC4)n3)nc(N)c2C#N)cc1 [Example 19, N-(4-{6-amino-2-[6-(4-benzoylpiperazin-1-ylmethyl)pyridin-2-ylmethylsulfanyl]-5-cyanopyrimidin-4-yl}phenyl)acetamide]
EC50 [2]: 7.4 nM

CC(=O)Nc1ccc(-c2nc(SCc3cccc(CN4CCN(C(=O)CN5CCN(C)CC5)CC4)n3)nc(N)c2C#N)cc1 [Example 21, N-{4-[6-amino-5-cyano-2-(6-{4-[2-(4-methylpiperazin-1-yl)acetyl]piperazin-1-ylmethyl}pyridin-2-ylmethylsulfanyl)pyrimidin-4-yl]phenyl}acetamide hydrochloride]
EC50 [2]: 10.6 nM

CC(=O)Nc1ccc(-c2nc(SCc3cccc(C(=O)N4CCOCC4)n3)nc(N)c2C#N)cc1 [Example 26, N-(4-{6-amino-5-cyano-2-[6-(morpholin-4-carbonyl)pyridin-2-ylmethyl-sulfanyl]pyrimidin-4-yl}phenyl)acetamide hydrochloride salt]
EC50 [2]: 30.7 nM
